“And” between values parts separate entries of the source, which are not always exact repeats. Equal entries are not always repeated. One block for each compound: values may come before it.
System: 521955-158-R2-J5-PDC complex spheroid viability
Experiment: Anticancer human tumor 521955-158-R2-J5-PDC patient-derived pancreatic carcinoma cell line growth inhibition
Settings: for viability, T/C: stronger effect = lower value
Excerpt: Multicellular complex tumor spheroid response to LSD1 Inhibitor Iadademstat in combination with a variety of drugs and investigational agents in selected tumor cell lines
The current study was undertaken to assess response to LSD1 inhibitors in combination with standard-of-care drugs and investigational agents in solid tumor complex spheroid models as well as in the K-562 leukemia. Complex spheroids include a stromal component modeled by human endothelial cells (HUVEC) and fibroblasts modeled by human mesenchymal stem cells (MSCs). The concentration ranges selected for each drug and investigational agent were based upon clinically achievable concentrations if the clinical Cmax of the agent was known.
Compounds. The drugs and investigational agents used in this study are listed on Table 1. All of the agents used, including staurosporine (NSC755774) and gemcitabine (NSC613327), were obtained from the Developmental Therapeutics Program, NCI. FDA-approved anticancer drugs are available from the NCI at http://dtp.nci.nih.gov/branches/dscb/oncology_drugset_explanation.html. Drugs and investigational agents were >95% pure by proton nuclear magnetic resonance (NMR) and liquid chromatography/mass spectrometry (LC/MS). Stock solutions were prepared at 400x in DMSO, stored at -70 degrees C, and diluted in fresh medium prior to their use. The final concentration of DMSO in cell culture wells never exceeded 0.25% (v/v). The FDA-approved anticancer drug set is available from the Developmental Therapeutics Program at https://dtp.cancer.gov/organization/dscb/obtaining/available_plates.htm. All drugs and investigational agents were tested over a range starting from a high concentration at or near the clinical Cmax and decreasing in half-log increments. If the clinical Cmax for an agent had not been determined, the highest concentration tested was 10 microM.
Cell Lines. The patient-derived cancer cell (PDC) lines: 292921-168-R-J2-PDC, K24384-001-R-PDC, and 521955-158-R2-J5-PDC pancreatic carcinomas, 556581-035-R-J1 ovarian carcinoma, 324938-238-R-J1-PDC, 855422-203-R-J1-PDC and 883617-216-R-J1-PDC urothelial bladder carcinomas, 743489-274-T-PDC renal cell carcinoma, 138582-R-J1 Merkel cell tumor, K60290-347-R-J1 and K57222-313-R-J1-PDC glioblastomas, 653999-131-R-J2-PDC, LG0703-F948-PDC, and 349418-098-R-PDC non-small cell lung carcinomas, 885512-296-R-J2-PDC, 171881-019-R-J1-PDC breast carcinomas and 186277-243-T-J2-PDC and 233499-124-R-J2-PDC colon carcinomas were obtained from the NCI Patient-Derived Models Repository (PDMR, https://pdmr.cancer.gov). The established cell lines NCI/ADR-RES (RRID:CVCL_14520 and OVCAR-5 (RRID:CVCL_1628) ovarian carcinomas, 786-O (RRID:CVCL_1051) and A498 (RRID:CVCL_A498) renal cell carcinoma, NCI-H211 (ATCC, cat. CRL-5824; RRID:CVCL_1529), NCI-H196 (ATCC, cat. CRL-5823, RRID:CVCL_1509), SW 1271 (ATCC, cat. CRL-2177, RRID:CVCL_1716) and NCI-H1876 (ATCC, cat. CRL-5902, RRID:CVCL_1503) small cell lung carcinomas, MDA-MB-231 (RRID:CVCL_0062) and MDA-MB-468 (RRID:CVCL_0419)breast carcinomas (10-12). Pooled donor human umbilical vein endothelial cells (HUVEC, Lonza, cat. CC-2519) and human mesenchymal stem cells (hMSC, Lonza, cat. PT-2501) were purchased from Lonza (Walkersville, MD).
Cell Culture. All cells were maintained in an incubator at 37 degrees C and 5% CO2 with 95% humidity. The PDC lines were cultured according to standard operating procedures established by the NCI PDMR (https://pdmr.cancer.gov). Briefly all PDCs were thawed and cultured in Matrigel-coated flasks prepared with a working solution of 1X Ham's F-12 nutrient mix, without supplementation (Invitrogen, Waltham, MA, cat. 11765054), 100 U/mL penicillin-streptomycin (Invitrogen, cat. 15140122), and 2.5% Matrigel (Corning Inc., Corning, NY, cat. 354248) for the first three passages. […]

[1] = curve of first compound, second compound 0.1 µM
[2] = curve of first compound, second compound 0.316 µM
[3] = curve of first compound, second compound 1 µM
[4] = curve of first compound, second compound 3.16 µM
[5] = curve of first compound, second compound 10 µM
[6] = second compound 0.1 µM, first compound 0.0316 µM
[7] = second compound 0.1 µM, first compound 0.1 µM
[8] = second compound 0.1 µM, first compound 0.316 µM
[9] = second compound 0.1 µM, first compound 1 µM
[10] = second compound 0.1 µM, first compound 3.16 µM
[11] = second compound 0.1 µM, first compound 10 µM
[12] = second compound 0.316 µM, first compound 0.0316 µM
[13] = second compound 0.316 µM, first compound 0.1 µM
[14] = second compound 0.316 µM, first compound 0.316 µM
[15] = second compound 0.316 µM, first compound 1 µM
[16] = second compound 0.316 µM, first compound 3.16 µM
[17] = second compound 0.316 µM, first compound 10 µM
[18] = second compound 1 µM, first compound 0.0316 µM
[19] = second compound 1 µM, first compound 0.1 µM
[20] = second compound 1 µM, first compound 0.316 µM
[21] = second compound 1 µM, first compound 1 µM
[22] = second compound 1 µM, first compound 3.16 µM
[23] = second compound 1 µM, first compound 10 µM
[24] = second compound 3.16 µM, first compound 0.0316 µM
[25] = second compound 3.16 µM, first compound 0.1 µM
[26] = second compound 3.16 µM, first compound 0.316 µM
[27] = second compound 3.16 µM, first compound 1 µM
[28] = second compound 3.16 µM, first compound 3.16 µM
[29] = second compound 3.16 µM, first compound 10 µM
[30] = second compound 10 µM, first compound 0.0316 µM
[31] = second compound 10 µM, first compound 0.1 µM
[32] = second compound 10 µM, first compound 0.316 µM
[33] = second compound 10 µM, first compound 1 µM
[34] = second compound 10 µM, first compound 3.16 µM
[35] = second compound 10 µM, first compound 10 µM
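Further: spheroids exposed to agents for seven days.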
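Wherever viability, T/C is given: percent of DMSO vehicle control luminescence viability.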

Compound: O=C(C=Cn1cnc(-c2cc(C(F)(F)F)cc(C(F)(F)F)c2)n1)NNc1cnccn1
viability, T/C (compound 0.00316 µM): 44% and 57%
viability, T/C (compound 0.01 µM): 36.4% and 61.1%
viability, T/C (compound 0.0316 µM): 40.2% and 68%
viability, T/C (compound 0.1 µM): 31.9% and 73.8%
viability, T/C (compound 0.316 µM): 15.7% and 36.3%
viability, T/C (compound 1 µM): 11.8% and 16.6%

Compound: CC(C)c1c(-c2ccccc2)nc2c(C#N)c[nH]n2c1=O + NC1CCC(NC2CC2c2ccccc2)CC1
IC50 [1]: > 10 µM
IC50 [2]: > 10 µM
IC50 [3]: > 10 µM
IC50 [4]: > 10 µM
IC50 [5]: > 10 µM
viability, T/C [6]: 87.4%
viability, T/C [7]: 89.5%
viability, T/C [8]: 88.8%
viability, T/C [9]: 84.7%
viability, T/C [10]: 79%
viability, T/C [11]: 68.2%
viability, T/C [12]: 84.9%
viability, T/C [13]: 85.5%
viability, T/C [14]: 89.2%
viability, T/C [15]: 78.3%
viability, T/C [16]: 70.9%
viability, T/C [17]: 65%
viability, T/C [18]: 86.3%
viability, T/C [19]: 83.6%
viability, T/C [20]: 89.4%
viability, T/C [21]: 81.7%
viability, T/C [22]: 76.3%
viability, T/C [23]: 62.9%
viability, T/C [24]: 90%
viability, T/C [25]: 86.7%
viability, T/C [26]: 89.1%
viability, T/C [27]: 85.1%
viability, T/C [28]: 74.2%
viability, T/C [29]: 59.6%
viability, T/C [30]: 87.8%
viability, T/C [31]: 84.3%
viability, T/C [32]: 80.7%
viability, T/C [33]: 79.2%
viability, T/C [34]: 66.2%
viability, T/C [35]: 54.5%

Compound: CC(C)CC(NC(=O)C(Cc1ccccc1)NC(=O)c1cnccn1)B(O)O (stereo not drawn) + NC1CC1c1ccc(-c2cccc(O)c2)cc1
IC50 [1]: 0.000538 µM
IC50 [2]: 0.000504 µM
IC50 [3]: 0.000515 µM
IC50 [4]: 0.000462 µM
IC50 [5]: 0.000336 µM
viability, T/C (second compound 0.1 µM, first compound 0.000316 µM): 92.2%
viability, T/C (second compound 0.1 µM, first compound 0.001 µM): 0.66%
viability, T/C (second compound 0.1 µM, first compound 0.00316 µM): 0.11%
viability, T/C (second compound 0.1 µM, first compound 0.01 µM): 0.08%
viability, T/C [6]: 0.09%
viability, T/C [7]: 0.26%
viability, T/C (second compound 0.316 µM, first compound 0.000316 µM): 83.8%
viability, T/C (second compound 0.316 µM, first compound 0.001 µM): 0.44%
viability, T/C (second compound 0.316 µM, first compound 0.00316 µM): 0.17%
viability, T/C (second compound 0.316 µM, first compound 0.01 µM): 0.18%
viability, T/C [12]: 0.1%
viability, T/C [13]: 0.3%
viability, T/C (second compound 1 µM, first compound 0.000316 µM): 86.6%
viability, T/C (second compound 1 µM, first compound 0.001 µM): 0.35%
viability, T/C (second compound 1 µM, first compound 0.00316 µM): 0.24%
viability, T/C (second compound 1 µM, first compound 0.01 µM): 0.04%
viability, T/C [18]: 0.06%
viability, T/C [19]: 0.28%
viability, T/C (second compound 3.16 µM, first compound 0.000316 µM): 74.4%
viability, T/C (second compound 3.16 µM, first compound 0.001 µM): 0.52%
viability, T/C (second compound 3.16 µM, first compound 0.00316 µM): 0.15%
viability, T/C (second compound 3.16 µM, first compound 0.01 µM): 0.08%
viability, T/C [24]: 0.07%
viability, T/C [25]: 0.2%
viability, T/C (second compound 10 µM, first compound 0.000316 µM): 52.8%
viability, T/C (second compound 10 µM, first compound 0.001 µM): 0.4%
viability, T/C (second compound 10 µM, first compound 0.00316 µM): 0.22%
viability, T/C (second compound 10 µM, first compound 0.01 µM): 2.1%
viability, T/C [30]: 0.17%
viability, T/C [31]: 1.31%

IC50 (curve of compound): 0.00519 µM and 0.00618 µM
Compound: CC(C)CC(NC(=O)CNC(=O)c1cc(Cl)ccc1Cl)B1OC(=O)CC(CC(=O)O)(C(=O)O)O1 (stereo not drawn)
viability, T/C (compound 0.000316 µM): 107% and 105%
viability, T/C (compound 0.001 µM): 106%
viability, T/C (compound 0.00316 µM): 82.2% and 97.3%
viability, T/C (compound 0.01 µM): 7.33% and 16.1%
viability, T/C (compound 0.0316 µM): 0.46% and 1.77%
viability, T/C (compound 0.1 µM): 0.41% and 0.54%

Compound: COc1ccc([C@@H](O)c2cc(-c3ncnc4cc(N5CCOCC5)ccc34)c(F)cc2Cl)nn1 + NC1CCC(NC2CC2c2ccccc2)CC1
IC50 [1]: 0.838 µM
IC50 [2]: 0.973 µM
IC50 [3]: 0.64 µM
IC50 [4]: 0.795 µM
IC50 [5]: 0.742 µM
viability, T/C [6]: 81.5%
viability, T/C [7]: 80.9%
viability, T/C [8]: 66.5%
viability, T/C [9]: 42.9%
viability, T/C [10]: 38.6%
viability, T/C [11]: 22.7%
viability, T/C [12]: 74.4%
viability, T/C [13]: 72.3%
viability, T/C [14]: 65.3%
viability, T/C [15]: 45%
viability, T/C [16]: 38.8%
viability, T/C [17]: 22.4%
viability, T/C [18]: 77.4%
viability, T/C [19]: 81.8%
viability, T/C [20]: 57.8%
viability, T/C [21]: 42.6%
viability, T/C [22]: 30.9%
viability, T/C [23]: 19.7%
viability, T/C [24]: 80.7%
viability, T/C [25]: 80.7%
viability, T/C [26]: 65%
viability, T/C [27]: 45.8%
viability, T/C [28]: 29.1%
viability, T/C [29]: 19.3%
viability, T/C [30]: 80%
viability, T/C [31]: 79.5%
viability, T/C [32]: 64.5%
viability, T/C [33]: 42.2%
viability, T/C [34]: 30.5%
viability, T/C [35]: 15.4%
